# Source: PubChem BioAssay AID2060494 (Molecular Pharmacology Branch, DTP, NCI, 2025)
# Several values for one entry are separate records, joined by “and”; a condition that tells them apart may be missing. Equal entries are not always repeated.
# System: 435261-313-R-J1-PDC complex spheroid viability
# Assay: Anticancer human tumor 435261-313-R-J1-PDC patient-derived colon adenocarcinoma cell line growth inhibition [GQUAD]
# Settings: for viability, T/C: stronger effect = lower value
# Text: DNA G-quadruplex Stabilizer Agents in Combinations in Complex Spheroids
# A high-throughput screen of multi-cell type tumor spheroids was designed to identify active combinations of DNA G-quadruplex stabilizer agents and targeted small molecules. Complex spheroids include a stromal component modeled by human endothelial cells (HUVEC) and fibroblasts modeled by human mesenchymal stem cells (MSCs). The concentration ranges selected for each drug and investigational agent were based upon clinically achievable concentrations if the clinical Cmax of the agent was known.
# Compounds. The drugs and investigational agents: pidnarulex (CX-5461; NSC782164), APTO-253 (NSC789042), BRACO-19 (NSC847499), peposertib (NSC802822), ceralasertib (NSC780249), elimusertib (NSC800525), camonsertib (NSC841442), AZD-1390 (NSC803789), olaparib (NSC753686), talazoparib (NSC767125), ART-558 (NSC835418), sotorasib (NSC818433), MRTX-1133 (NSC836407), SN-38 (NSC673596), topotecan (NSC609699), etoposide (NSC141540), doxorubicin (NSC123127), gemcitabine (NSC613327), 5-fluorouracil (NSC19893), paclitaxel (NSC125973), vemurafenib (NSC761431), panobinostat (NSC761190), R-306465 (JNJ-16241199; NSC773264), adavosertib (NSC754352), TP-3654 (NSC805149), carboplatin (NSC241240), KSQ-4279 (NSC840948), and staurosporine (NSC755774) were obtained from the National Cancer Institute (NCI) Developmental Therapeutics Program Chemical Repository (34). The FDA-approved anticancer drug set is available from the NCI Developmental Therapeutics Program. […] The stock solutions were prepared in dimethyl sulfoxide (DMSO, Sigma-Aldrich, St. Louis, MO, cat. D2650) at 800-fold the tested concentration and stored at -70 degrees C prior to their use. All drugs and investigational agents were tested over a range starting from a high concentration at or near the clinical Cmax and decreasing in half-log increments. If the clinical Cmax for an agent had not been determined, the highest concentration tested was 10 microM.
# 2.3 Cell Culture. All cells were maintained in an incubator at 37 degrees C and 5% CO2 with 95% humidity. The PDC lines were cultured according to standard operating procedures established by the NCI PDMR. All PDCs were thawed and cultured in Matrigel-coated flasks prepared with a working solution of 1X Ham's F-12 nutrient mix, without supplementation (Invitrogen, cat. 11765054), 100 U/mL penicillin-streptomycin (Invitrogen, cat. 15140122), and 2.5% Matrigel (Corning Inc., cat. 354248) for the first three passages. The 857933-349-R-J2-PDC line was cultured in 6C/Colon 1B media, which includes advanced DMEM/F-12 (Thermo Fisher Scientific, cat. 12634028), 10 mM HEPES (Thermo Fisher Scientific, cat. 15630080), 1X GlutaMAX supplement (Thermo Fisher Scientific, cat. 35050061), 0.1 mg/mL primocin (InvivoGen, cat. ant-pm-2), 10% defined fetal bovine serum, heat inactivated (HyClone Laboratories Inc., cat. SH30070.03HI), 50% L-WRN conditioned media (ATCC, cat. CRL-3276), 1.25 mM N-Acetyl-L-cysteine (Sigma-Aldrich, cat. A9165), 10 mM nicotinamide (Sigma-Aldrich, cat. N0636), 1X B-27 supplement (Thermo Fisher Scientific, cat. 17504044), 1X N-2 supplement (Thermo Fisher Scientific, cat. 17502048), 10 microM Y-27632 dihydrochloride (Tocris Bioscience, cat. 1254), and 50 ng/mL human EGF recombinant protein (Thermo Fisher Scientific, cat. PHG0311). The 485176-168-R4-J1-PDC line was cultured in Panc media, which includes all 6C/Colon 1B media components plus 100 ng/mL human FGF-10 (Thermo Fisher Scientific, cat. 100-26), 500 nM SB-431542 (Selleckchem, cat. S1067), and gastrin (Tocris, cat. 3006).
# […]
# 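Also: spheroids exposed to the agents for seven days before readout.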
# 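For viability, T/C in this document: percent of vehicle control viability with DMSO wells as 100%.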
Compound,IC50 (curve of compound),"IC50 (compound alone, run of 02/20/2024)","IC50 (compound alone, run of 02/26/2024)","viability, T/C (compound 0.0316 µM)","viability, T/C (compound 0.1 µM)","viability, T/C (compound 0.316 µM)","viability, T/C (compound 1 µM)","viability, T/C (compound 3.16 µM)","viability, T/C (compound 10 µM)","viability, T/C (compound 0.000999 µM)","viability, T/C (compound 0.00316 µM)","viability, T/C (compound 0.00999 µM)","viability, T/C (compound 0.0999 µM)"
CC(=O)O[C@H]1C(=O)[C@@]2(C)[C@H]([C@H](OC(=O)c3ccccc3)[C@]3(O)C[C@H](OC(=O)[C@H](O)[C@@H](NC(=O)c4ccccc4)c4ccccc4)C(C)=C1C3(C)C)[C@]1(OC(C)=O)CO[C@@H]1C[C@@H]2O,–,–,–,92.9% and 82.9% and 90.8%,76.1% and 66.3% and 52.6%,68.9% and 81.9% and 51.9%,68.7% and 43.9% and 69.8%,68.5% and 44.5% and 67.8%,65.1% and 53.1% and 63.9%,–,–,–,–
CC(C)(O)C1CCC(Nc2ccc3ncc(-c4cccc(C(F)(F)F)c4)n3n2)CC1 (configuration not stated),665 nM,–,–,60.2%,82%,82.5%,36.3%,9.61%,12.9%,–,–,–,–
CC[C@@]1(O)C(=O)OCc2c1cc1n(c2=O)Cc2cc3c(CN(C)C)c(O)ccc3nc2-1,> 316 nM,–,–,85.8% and 74.4% and 89.1%,–,59% and 68.4% and 67.3%,–,–,–,126% and 101% and 118%,61.6% and 94.8% and 94.1%,96.5% and 98.2% and 110%,75.2% and 72.1% and 83.8%
CCc1c2c(nc3ccc(O)cc13)-c1cc3c(c(=O)n1C2)COC(=O)[C@]3(O)CC,–,–,–,48.6% and 83.2% and 48.7%,–,30.8% and 54.3% and 25.1%,–,–,–,92.5% and 68.7% and 82%,48.6% and 84.6% and 53.4%,66.8% and 82.9% and 63.2%,44% and 53.8% and 41.1%
CN(C)c1ccc(Nc2c3ccc(NC(=O)CCN4CCCC4)cc3nc3cc(NC(=O)CCN4CCCC4)ccc23)cc1,–,–,–,–,–,–,–,63.9% [middle of 11 runs],41.3% [middle of 11 runs],–,–,–,–
COc1cc(C2c3cc4c(cc3C(OC3OC5COC(C)OC5C(O)C3O)C3COC(=O)C23)OCO4)cc(OC)c1O (configuration not stated),> 10000 nM,–,–,118% and 96.2%,67.4% and 93.6%,83.6% and 91.3%,56.6% and 80.2%,62.7% and 78.5%,52.2% and 61.6%,–,–,–,–
COc1cccc2c1C(=O)c1c(O)c3c(c(O)c1C2=O)CC(O)(C(=O)CO)CC3OC1CC(N)C(O)C(C)O1 (configuration not stated),656 nM and 293 nM,–,–,94.1% and 85%,67.5% and 76.3%,74.4% and 44%,37% and 26.8%,2.3% and 1.87%,4.42% and 1.38%,–,–,–,–
Cc1[nH]c2ccccc2c1CCNCc1ccc(/C=C/C(=O)NO)cc1,69 nM and 100 nM,–,–,78.2% and 87.4%,–,7.05% and 6.56%,–,–,–,95.4% and 104%,69.8% and 120%,57.5% and 73.5%,38% and 48.4%
Cc1cnc(CNC(=O)c2c(=O)c3ccc(N4CCCN(C)CC4)nc3n3c2sc2ccccc23)cn1,–,–,–,74.8% [middle of 10 runs],64.1% [middle of 10 runs],57.7% [middle of 10 runs],46.2% [middle of 10 runs],9.54% [middle of 10 runs],0.19% [middle of 7 runs],–,–,–,–
Nc1ccn(C2OC(CO)C(O)C2(F)F)c(=O)n1 (configuration not stated),> 10000 nM,–,–,54.8% and 88.1% and 71.3%,48.5% and 89.5% and 58.6%,54.9% and 84.8% and 61.3%,51.8% and 98.2% and 50.4%,58.7% and 76.3% and 69.7%,51.3% and 66.3% and 51.9%,–,–,–,–
O=C(NO)c1cnc(N2CCN(S(=O)(=O)c3ccc4ccccc4c3)CC2)nc1,318 nM,–,–,97.4%,68.3%,52.4%,35.2%,0.38%,0.16%,–,–,–,–
O=c1[nH]cc(F)c(=O)[nH]1,> 10000 nM,–,–,88.6% and 164% and 121%,71.2% and 82.5% and 101%,83% and 89.5% and 119%,61.4% and 63.8% and 109%,63.2% and 95% and 99.5%,63.7% and 75% and 70.3%,–,–,–,–

# The next lines start with results.
IC50 (curve of compound),"IC50 (compound alone, run of 02/20/2024)","IC50 (compound alone, run of 02/26/2024)",Compound,"viability, T/C (compound 0.0316 µM)","viability, T/C (compound 0.1 µM)","viability, T/C (compound 0.316 µM)","viability, T/C (compound 1 µM)","viability, T/C (compound 3.16 µM)","viability, T/C (compound 10 µM)","viability, T/C (compound 0.000999 µM)","viability, T/C (compound 0.00316 µM)","viability, T/C (compound 0.00999 µM)","viability, T/C (compound 0.0999 µM)"
> 10000 nM and 6010 nM,–,–,C#Cc1c(F)ccc2cc(O)cc(-c3ncc4c(N5CC6CCC(C5)N6)nc(OCC56CCCN5CC(F)C6)nc4c3F)c12 (configuration not stated),108% and 99.7% and 99.5%,99.8% and 93.3% and 92.1%,92.1% and 98.2% and 99.7%,80.9% and 54.3% and 80.5%,51.5% and 76.6% and 64.6%,57.3% and 53.5% and 39.1%,–,–,–,–
> 10000 nM,–,–,C=CC(=O)N1CCN(c2nc(=O)n(-c3c(C)ccnc3C(C)C)c3nc(-c4c(O)cccc4F)c(F)cc23)C(C)C1 (configuration not stated),113% and 111% and 86%,96% and 101% and 88.2%,127% and 125% and 132%,106% (2×) and 75.7%,134% and 124% and 116%,110% and 131% and 101%,–,–,–,–
> 10000 nM and 8920 nM,–,–,C=CCn1c(=O)c2cnc(Nc3ccc(N4CCN(C)CC4)cc3)nc2n1-c1cccc(C(C)(C)O)n1,86.6% and 93%,114% and 97.5%,94.4% and 87.1%,74.3% and 105%,70.5% and 77.6%,57.6% and 47%,–,–,–,–
5900 nM and 7090 nM,–,–,CC(C)n1c(=O)n(C)c2cnc3cc(F)c(-c4ccc(OCCCN5CCCCC5)nc4)cc3c21,94.4% and 102%,88% and 71.4%,109% and 113%,81.4% and 57.3%,65.6% and 84.4%,37.7% and 38.4%,–,–,–,–
321 nM and 203 nM,–,–,CC1COCCN1c1cc(-c2ccnn2C)c2ccnc(-c3ccn[nH]3)c2n1 (configuration not stated),67.8% and 99.2%,53.6% and 47.4%,52.6% and 55.7%,38.4% and 36.9%,37.2% and 32.5%,20.3% and 19.5%,–,–,–,–
259 nM and 174 nM,–,–,CC1COCCN1c1cc(C2(O)CC3CCC(C2)O3)c2cnn(-c3ccn[nH]3)c2n1 (configuration not stated),85.4% and 89.4%,58.9% and 54.2%,49.8% and 43.1%,29.2% and 27%,26.7% and 20.5%,9.56% and 9.97%,–,–,–,–
> 10000 nM and 2920 nM,–,–,CC1COCCN1c1cc(C2(S(C)(=N)=O)CC2)nc(-c2ccnc3[nH]ccc23)n1 (configuration not stated),98.5% and 112% and 88.4%,87.1% and 109% and 69.1%,88.4% and 79.8% and 94%,83.2% and 81.4% (2×),65.6% and 80.9% and 47.6%,51.2% and 79.8% and 42%,–,–,–,–
4250 nM and 5710 nM,–,–,CCCS(=O)(=O)Nc1ccc(F)c(C(=O)c2c[nH]c3ncc(-c4ccc(Cl)cc4)cc23)c1F,105% and 95%,69.6% and 103%,118% and 139%,82.9% and 104%,63.1% and 88.8%,14.7% and 13.4%,–,–,–,–
1930 nM and 2610 nM and 976 nM,–,–,COc1ccc([C@@H](O)c2cc(-c3ncnc4cc(N5CCOCC5)ccc34)c(F)cc2Cl)nn1,105% and 99% and 90.9%,69.6% and 82.1% and 74.6%,81.5% and 103% and 90.2%,62.6% and 71.3% and 49.3%,38.6% and 47.8% and 37.7%,30.6% and 31.7% and 25.6%,–,–,–,–
> 10000 nM,–,–,COc1ncnc(C2CC2)c1-c1ncc2cnn(Cc3ccc(-c4nc(C(F)(F)F)cn4C(C)C)cc3)c2n1,89.1% and 87.3%,75.2% and 70.5%,85.4% and 92.4%,113% and 83%,96.8% and 88.3%,84.5% and 65.8%,–,–,–,–
–,1.81 µM [middle of 4 runs],1110 nM and 949 nM and 3310 nM,Cc1[nH]c2ccc(F)cc2c1-c1nc2c3cccnc3c3ncccc3c2[nH]1,99.6% [middle of 8 runs],–,–,–,30.2% [middle of 8 runs],24.5% [middle of 8 runs],–,–,–,–
> 10000 nM,–,–,Cc1cccc(N(C)C(=O)C2C(O)CCN2c2nc(C)cc(C(F)(F)F)c2C#N)c1 (configuration not stated),102% and 105% and 116%,94.8% and 106% and 102%,138% and 103% and 89.8%,106% and 93.5% and 114%,100% and 89.1% and 85.5%,122% and 94.3% and 84%,–,–,–,–
> 316 nM,–,–,Cn1ncnc1[C@H]1c2n[nH]c(=O)c3cc(F)cc(c23)N[C@@H]1c1ccc(F)cc1,71.5% and 116% and 74.2%,–,81.1% and 72% and 81.4%,–,–,–,129% and 93.2% and 109%,91% and 87% and 106%,114% and 98% and 124%,101% and 65.9% and 81.1%
> 10000 nM,–,–,O=C(c1cc(Cc2n[nH]c(=O)c3ccccc23)ccc1F)N1CCN(C(=O)C2CC2)CC1,104% and 96%,101% and 90.4%,80.2% and 95.2%,98.7% and 88.8%,82.4% and 119%,71.2% and 80.3%,–,–,–,–
